The subject of the test is METH-conditioned rats. Kind of test: METH-induced conditioned place preference (CPP) with simultaneous motor sensitization. The test is classed as in vivo, rat. From the text: The CPP box (Accuscan, Columbus, Ohio) consists of three Plexiglas compartments, each with distinct visual and tactile cues (on one side, patterned floor with object attached and horizontally striped wall; on the opposite side, smooth floor with no object and vertically striped walls; center—uniformly white floor and walls). The center compartment can be separated from the left and right compartments by removable guillotine doors. Motor activity in three dimensional space, and time spent, in each compartment is detected by two sets of photobeams set at different heights from the floor. Drug conditioning is performed by administering METH to the rat while it is in one compartment, and on the alternating day, saline is administered while the rat is confined to the opposite compartment. Confinement was achieved by blocking access to other compartments using the guillotine door. The center compartment is not seen by the rat during conditioning, and all conditioning sessions last for 45 min.
The inventors have determined that the number of METH-pairings, and the dose of METH, dictate the strength of the drug-environment association (i.e., the magnitude of salience attribution). The test for CPP is determined in a METH-free state (i.e., at least 48 hr after that last METH pairing), at which time the rats are placed in the center compartment and allowed free access to all compartments for 30 min, and the time spent in each compartment is the index of preference. The inventors have determined that the number of METH-pairings, and the dose of METH, dictate the strength of the drug-environment association (i.e., the magnitude of salience attribution) and thus the amount of time spent in the compartment previously paired with METH (FIG. 7), as well as persistence of this effect (i.e., how long it lasts; FIG. 8A). METH-induced motor sensitization can be assessed in several ways, including assessing the capacity of the rat to express an enhanced motor response to an acute METH challenge (FIGS. 9 & 10A).
To efficiently apply this approach to testing of 5-HT2A/2C antagonists, we determined that single pairing protocols of the CPP paradigm can be used to predict efficacy outcomes of 5-HT2A/2C antagonists in long-term tests on these drugs evaluating their capacity to nullify the persistent enhanced salience induced by METH. […] Thus, these protocols should help predict the capacity of novel therapeutic targets to halt a common problem of drug relapse, i.e., the ability of re-exposure to drugs like METH to immediately reinstate their abuse.

The source of these data is patent US20060035889A1, “Treatment for methamphetamine addiction and reduction of methamphetamine use using serotonin antagonists” (priority 2004, published 2006).

As for `CN1CCN2c3ncccc3Cc3ccccc3[C@@H]2C1` (racemic) [mirtazapine, 1,2,3,4,10,14b-hexahydro-2-methyl-pyrazino[2,1-a]pyrido[2,3-c]benzazepine], the “preference to the place previously paired with METH (CPP expression)” value (3 pairings 1 mg/kg ip METH, ten once-daily 5 mg/kg ip mirtazapine during withdrawal, day 20 (FIG. 8B)) is “completely reverse”. The “associated motor sensitization (number of rears)” value (mirtazapine during METH withdrawal, METH challenge day 22 (FIG. 10B)) was “completely reverse”. In addition, under “repeated mirtazapine during withdrawal, day 25 (FIG. 12)”, the “ability of subsequent METH pairings to induce CPP (reinstatement)” value was “renders ineffective”. For the setting “single home cage injection 0.5, 1.0 or 5.0 mg/kg mirtazapine 24 h before test (FIG. 11)”, the “CPP expression after single pairing of 1.0 mg/kg METH” value is “reversal of METH-induced CPP”.
